Activity calls are given as the source filed them. The rule behind the calls is not given here.
Experiments:
[1] = Volume of distribution at steady state in C57 mouse at 1 mg/kg, iv and 10 mg/kg, po; assay type: ADME, organism-based; conditions: in vivo, read-out: Vdss
[2] = Tmax in C57 mouse at 1 mg/kg, iv and 10 mg/kg, po; assay type: ADME, organism-based; conditions: in vivo
[3] = biological target: T1, Androgen receptor (Homo sapiens) (UniProt P10275); test: (§1) Displacement of radiolabeled mibolerone from human androgen receptor by filter paper assay
T1 sequence (whole entry): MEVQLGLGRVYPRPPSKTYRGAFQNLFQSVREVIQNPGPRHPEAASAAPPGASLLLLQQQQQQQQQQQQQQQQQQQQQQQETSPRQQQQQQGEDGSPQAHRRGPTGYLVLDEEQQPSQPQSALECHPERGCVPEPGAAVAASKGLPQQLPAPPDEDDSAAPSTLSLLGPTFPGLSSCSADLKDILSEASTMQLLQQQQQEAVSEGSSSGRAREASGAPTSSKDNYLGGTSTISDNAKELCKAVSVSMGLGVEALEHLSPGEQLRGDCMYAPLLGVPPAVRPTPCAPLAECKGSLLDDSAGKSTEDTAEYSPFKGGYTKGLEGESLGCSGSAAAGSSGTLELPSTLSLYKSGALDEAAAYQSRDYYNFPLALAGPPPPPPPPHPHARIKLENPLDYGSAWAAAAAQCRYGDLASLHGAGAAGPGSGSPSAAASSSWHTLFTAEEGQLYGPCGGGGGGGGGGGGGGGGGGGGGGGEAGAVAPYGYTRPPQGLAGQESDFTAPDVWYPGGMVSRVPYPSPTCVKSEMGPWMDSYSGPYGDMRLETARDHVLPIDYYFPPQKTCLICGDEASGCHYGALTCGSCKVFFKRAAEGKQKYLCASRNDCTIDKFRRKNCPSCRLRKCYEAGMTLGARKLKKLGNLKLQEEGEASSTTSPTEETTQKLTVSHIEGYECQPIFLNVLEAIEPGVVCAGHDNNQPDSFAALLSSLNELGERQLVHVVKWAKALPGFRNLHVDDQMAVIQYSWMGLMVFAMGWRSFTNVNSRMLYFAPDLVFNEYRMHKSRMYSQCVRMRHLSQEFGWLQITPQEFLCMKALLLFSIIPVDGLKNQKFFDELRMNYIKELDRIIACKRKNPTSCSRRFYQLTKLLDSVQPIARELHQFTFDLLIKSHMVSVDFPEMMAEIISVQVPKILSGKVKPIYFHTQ

Mus musculus = test: Upregulation of ABCA1 gene expression in LDL receptor knockout C57BL/6 mouse duodenum at 15 mg/kg administered with Western diet; assay type: functional; conditions: route oral
[4] = biological target: T2, Mineralocorticoid receptor (Homo sapiens, UniProt P08235); test: Displacement of radiolabeled aldosterone from human mineralocorticoid receptor by filter paper assay
T2 sequence (P08235 whole entry): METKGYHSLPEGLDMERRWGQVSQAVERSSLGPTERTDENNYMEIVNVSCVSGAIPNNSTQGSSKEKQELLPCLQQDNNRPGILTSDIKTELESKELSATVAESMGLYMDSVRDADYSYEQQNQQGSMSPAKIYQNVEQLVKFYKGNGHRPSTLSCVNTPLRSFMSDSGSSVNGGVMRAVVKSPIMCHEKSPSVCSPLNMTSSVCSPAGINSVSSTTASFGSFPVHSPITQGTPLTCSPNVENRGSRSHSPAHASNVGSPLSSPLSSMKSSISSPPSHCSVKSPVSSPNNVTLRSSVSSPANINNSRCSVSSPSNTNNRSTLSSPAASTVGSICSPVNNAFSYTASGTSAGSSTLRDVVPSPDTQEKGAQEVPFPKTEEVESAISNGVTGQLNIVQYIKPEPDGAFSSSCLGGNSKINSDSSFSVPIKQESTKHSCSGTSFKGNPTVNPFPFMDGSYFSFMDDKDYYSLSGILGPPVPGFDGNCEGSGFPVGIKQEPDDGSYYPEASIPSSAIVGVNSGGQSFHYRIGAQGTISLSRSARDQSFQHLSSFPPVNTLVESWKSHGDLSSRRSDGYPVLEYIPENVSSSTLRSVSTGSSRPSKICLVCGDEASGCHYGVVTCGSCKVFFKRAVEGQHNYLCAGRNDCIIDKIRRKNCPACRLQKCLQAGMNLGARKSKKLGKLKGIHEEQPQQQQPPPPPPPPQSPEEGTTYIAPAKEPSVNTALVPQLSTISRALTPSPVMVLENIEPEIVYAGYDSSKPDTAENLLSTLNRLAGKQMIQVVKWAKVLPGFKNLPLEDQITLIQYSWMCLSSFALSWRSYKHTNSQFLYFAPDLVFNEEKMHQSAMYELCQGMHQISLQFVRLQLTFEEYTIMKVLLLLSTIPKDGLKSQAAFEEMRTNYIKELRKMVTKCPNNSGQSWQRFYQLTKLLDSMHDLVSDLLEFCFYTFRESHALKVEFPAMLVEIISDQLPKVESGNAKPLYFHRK

Androgen receptor = biological target: T3, Androgen receptor (Homo sapiens, UniProt P10275); test: as §1
T3 sequence (P10275 whole entry): T1 sequence (whole entry)

| Compound | Vd [1] [L/kg] | Tmax [2] [min] | Activity [3] | fold change (FC) (Mus musculus) | IC50 [4] [µM] | IC50 (Androgen receptor) [nM] |
| --- | --- | --- | --- | --- | --- | --- |
| Fc1ccc(-c2c3cccc(C(F)(F)F)c3nn2Cc2ccccc2F)cc1 | 30.3 | 30 | inactive | 2.3 | > 10 | – |
| Fc1ccc(-c2c3cccc(C(F)(F)F)c3nn2Cc2ccc(F)cc2Cl)cc1 [LXR-623] | – | – | – | – | – | 2300 |
